The supplement of paper PMC10307832

Compound: CCCS(=O)(=O)Nc1ccc(F)c(C(=O)c2c[nH]c3ncc(-c4ccc(Cl)cc4)cc23)c1F [Vemurafenib] + O=C(c1cc(Cc2n[nH]c(=O)c3ccccc23)ccc1F)N1CCN(C(=O)C2CC2)CC1 [Olaparib] (partner 8 µM)
Experiment: relative viability (nuclei count vs DMSO), 5 days (fraction); higher = more cells survive
Outline: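 Lung cancer cell lines in 1536-well plates were dosed by pin tool the day after seeding, either with one drug alone or with a fixed anchor-drug dose plus five library-drug doses (not always all listed) in √10 steps. After 5 days, cells were fixed and their nuclei stained in one step (final 0.05% Triton X-100, 1% formaldehyde, 1 ug/ml Hoechst), then counted on 4× images. Relative viability is the nuclei count in treated wells divided by that in vehicle wells. Values are medians of duplicate plates.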

Cell Line | relative viability (first compound 0.03162 µM) | relative viability (first compound 0.1 µM) | relative viability (first compound 0.3162 µM) | relative viability (first compound 1 µM)
NCI-H2342 | 0.401 | 0.429 | 0.608 | 0.354
SW 1573 | 0.435 | 0.414 | 0.577 | 0.531
NCI-H1792 | 0.404 | 0.45 |  | 0.441
LOU-NH91 | 0.876 | 0.671 | 0.743 | 0.894
LC-2-ad | 0.691 | 0.645 | 0.763 | 0.69
HOP-62 | 0.38 | 0.388 | 0.412 | 0.438
NCI-H650 | 0.385 | 0.368 | 0.305 | 0.378
NCI-H1651 | 0.167 | 0.203 | 0.193 | 0.169
CAL-12T | 0.686 | 0.663 | 0.83 | 0.829
LK-2 | 0.618 | 0.633 | 0.644 | 0.417
EKVX | 0.891 |  | 0.898 | 0.911
EMC-BAC-2 | 0.444 | 0.528 | 0.352 | 0.369
NCI-H520 | 0.284 | 0.337 | 0.364 | 0.359
NCI-H322M | 0.728 |  | 0.93 | 0.726
COR-L 105 | 0.617 |  | 0.742 | 0.734
NCI-H2170 | 0.54 |  | 0.624 | 0.553
NCI-H358 | 0.539 | 0.745 | 0.625 | 0.521
NCI-H1793 | 0.778 | 0.497 | 0.879 | 1.06
NCI-H2405 | 0.857 | 0.893 |  | 0.937
NCI-H727 | 0.748 | 0.774 | 0.726 | 0.51
201T | 0.828 | 0.806 | 0.86 | 0.828
H3255 | 0.497 |  | 0.519 | 0.556
NCI-H1395 | 0.405 | 0.506 | 0.429 | 0.482
NCI-H1355 | 0.722 | 0.671 | 0.828 | 0.74
IA-LM | 0.67 | 0.818 | 0.78 | 0.721
HCC-827 | 0.624 |  | 0.65 | 0.632

Cell Line | relative viability (first compound 0.03162 µM) | relative viability (first compound 0.1 µM) | relative viability (first compound 0.3162 µM) | relative viability (first compound 1 µM)
NCI-H2085 | 0.737 | 0.791 | 0.632 | 0.858
NCI-H1755 | 0.806 | 0.898 | 0.907 | 0.8
PC-14 | 0.292 |  | 0.304 | 0.292
NCI-H3122 | 0.63 | 0.647 | 0.606 | 0.597
SK-LU-1 | 0.368 | 0.418 | 0.393 | 0.392
HCC-44 | 0.985 | 0.992 | 0.992 | 0.99
NCI-H1703 | 0.432 | 0.307 | 0.454 | 0.515
NCI-H460 | 0.44 | 0.408 |  | 0.39
NCI-H1915 | 0.263 | 0.25 | 0.242 | 0.244
NCI-H2126 | 0.835 | 0.956 | 0.92 | 0.922
EPLC-272H | 0.717 | 0.742 | 0.834 | 0.867
LCLC-103H | 0.644 | 0.71 | 0.742 | 0.797
NCI-H661 | 0.686 | 0.752 | 0.769 | 0.709
PC-3 [JPC-3] |  |  | 1.05 | 1.25
NCI-H2087 | 0.506 | 0.588 | 0.504 | 0.47
NCI-H1666 | 0.715 | 0.77 | 0.769 | 0.782
NCI-H2009 | 0.61 | 0.661 | 0.612 | 0.652
NCI-H2228 | 0.639 | 0.87 | 0.611 | 0.6
SK-MES-1 | 0.623 | 0.576 | 0.777 | 0.688
LCLC-97TM1 |  | 0.416 | 0.353 | 0.269
NCI-H596 | 0.742 | 0.657 | 0.63 | 0.719
BEN | 0.971 | 0.992 | 0.653 | 1.06
LU99A | 0.245 | 0.259 |  | 0.264
RERF-LC-KJ | 0.842 | 0.944 | 0.923 | 1.06
SW 900 | 0.812 | 0.607 | 0.939 | 0.994
EBC-1 | 0.451 | 0.657 | 0.723 | 0.649

Cell Line | relative viability (first compound 0.03162 µM) | relative viability (first compound 0.1 µM) | relative viability (first compound 0.3162 µM) | relative viability (first compound 1 µM)
NCI-H1944 | 0.426 |  | 0.384 | 0.359
HARA | 0.761 | 0.289 | 0.899 | 0.942
A-427 | 0.71 | 0.663 |  | 0.701
NCI-H2023 | 0.463 | 0.42 | 0.483 | 0.479
NCI-H2347 | 0.495 | 0.493 | 0.547 | 0.588
NCI-H1299 | 0.906 | 0.954 | 0.863 | 0.792
NCI-H1975 | 0.728 | 0.755 | 0.727 | 0.793
HCC-15 | 0.699 | 0.669 | 0.606 | 0.522
COR-L23 | 0.332 | 0.353 | 0.298 | 0.341
NCI-H23 | 0.309 | 0.326 | 0.295 | 0.343
NCI-H441 | 0.512 | 0.597 | 0.556 | 0.536
NCI-H1650 | 0.677 | 0.626 | 0.844 | 0.791
NCI-H1734 | 0.55 | 0.62 | 0.611 | 0.615
HCC-366 | 0.343 | 0.304 |  | 0.388
LXF-289 | 1.02 | 1.06 | 1.09 | 1
ChaGo-K-1 | 0.404 | 0.4 | 0.49 | 0.382
NCI-H838 | 0.746 | 0.764 | 0.697 | 0.821
NCI-H1993 | 0.976 |  | 1.26 | 1.12
NCI-H1437 | 0.629 | 0.589 | 0.615 | 0.637
NCI-H522 | 0.667 | 0.543 | 0.669 | 0.725
NCI-H1648 |  | 0.434 | 0.927 | 0.761
NCI-H647 | 0.605 | 0.469 | 0.513 | 0.634
A549 | 0.315 | 0.323 | 0.186 | 0.249
HCC-78 | 0.73 | 0.784 | 1.13 | 0.881
ABC-1 | 1.12 | 0.8 | 0.6 | 0.93
Calu-6 |  | 0.593 | 0.549 | 0.471
